Earlier results as cited in PubChem BioAssay AID493017 (Abbott Labs, 1994).

Target: Platelet-derived growth factor receptor alpha (Homo sapiens) (UniProt P16234)
Test: PubChem AID 493017
Settings: WOMBAT literature affinities, multiple human targets; PDGFR; gene PDGFRA; NCBI gene 5156

Chain of Platelet-derived growth factor receptor alpha (Homo sapiens) (P16234 whole entry, looked up): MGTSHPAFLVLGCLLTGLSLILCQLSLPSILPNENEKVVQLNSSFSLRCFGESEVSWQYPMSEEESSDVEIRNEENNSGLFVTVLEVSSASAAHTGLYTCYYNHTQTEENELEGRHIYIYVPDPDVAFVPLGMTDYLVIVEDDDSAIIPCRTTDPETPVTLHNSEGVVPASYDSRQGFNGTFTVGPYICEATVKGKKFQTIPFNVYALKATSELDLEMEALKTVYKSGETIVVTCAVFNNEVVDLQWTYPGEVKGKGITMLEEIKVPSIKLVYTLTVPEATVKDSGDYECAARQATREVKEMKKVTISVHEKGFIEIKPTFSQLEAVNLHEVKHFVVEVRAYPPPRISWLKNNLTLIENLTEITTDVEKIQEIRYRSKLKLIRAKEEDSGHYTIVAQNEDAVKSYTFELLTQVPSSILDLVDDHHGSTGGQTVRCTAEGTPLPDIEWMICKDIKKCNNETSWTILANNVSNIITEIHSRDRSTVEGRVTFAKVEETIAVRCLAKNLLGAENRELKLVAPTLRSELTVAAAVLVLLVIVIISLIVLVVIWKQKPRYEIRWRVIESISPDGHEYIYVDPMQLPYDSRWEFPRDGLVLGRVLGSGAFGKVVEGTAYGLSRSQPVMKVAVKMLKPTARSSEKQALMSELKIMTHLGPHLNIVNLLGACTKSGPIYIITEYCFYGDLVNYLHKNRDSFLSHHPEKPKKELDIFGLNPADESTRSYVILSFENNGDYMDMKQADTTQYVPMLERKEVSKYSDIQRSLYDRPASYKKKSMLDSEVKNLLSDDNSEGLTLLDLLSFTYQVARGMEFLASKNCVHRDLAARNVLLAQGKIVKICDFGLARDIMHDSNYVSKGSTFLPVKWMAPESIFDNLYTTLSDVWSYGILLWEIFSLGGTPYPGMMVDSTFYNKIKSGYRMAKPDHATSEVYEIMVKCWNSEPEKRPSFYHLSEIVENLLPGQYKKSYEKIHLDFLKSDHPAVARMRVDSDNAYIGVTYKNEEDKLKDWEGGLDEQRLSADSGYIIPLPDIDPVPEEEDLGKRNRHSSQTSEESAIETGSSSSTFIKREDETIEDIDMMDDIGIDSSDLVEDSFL

IC50 [nM] | SMILES
1410 | COc1cccc(-c2cnc3cc(OC)c(OC)cc3c2)c1
102 | COc1cc2cc(-c3ccccc3)cnc2cc1OC
2650 | COc1cc2cc(-c3ccc(Cl)c(Cl)c3)cnc2cc1OC
40 | COc1cc2cc(NCc3ccccc3)cnc2cc1OC
24.5 | COc1cc2cc(-c3ccc(O)cc3)cnc2cc1OC
52.9 | COc1cc2cc(OCc3ccccc3)cnc2cc1OC
31.6 | COc1cc2cc(C#Cc3ccccc3)cnc2cc1OC
245 | COc1cc2cc(-c3c[nH]c4ccccc34)cnc2cc1OC
21.2 | COc1cc2cc(-c3ccc(=O)[nH]c3)cnc2cc1OC

The next lines start with the molecule.

SMILES | IC50 [nM]
Fc1cc2cc(-c3ccsc3)cnc2cc1F | 2830
COc1ccc(-c2cnc3cc(OC)c(OC)cc3c2)cc1 | 3.87
COc1cc2cccnc2cc1OC | 24500
COc1ccc(C=Cc2cnc3cc(OC)c(OC)cc3c2)cc1 | 54.8
COc1cc2cc(C3CCCC3)cnc2cc1OC | 224
COc1cc2cc(-c3ccc(C(=O)O)cc3)cnc2cc1OC | 1870
COc1cc2cc(C#CC3CCCCC3)cnc2cc1OC | 548
Oc1cc2cc(-c3cccnc3)cnc2cc1O | 7750
COc1ccc(CCc2cnc3cc(OC)c(OC)cc3c2)cc1 | 400
c1ccc2ncc(-c3c[nH]c4ccccc34)cc2c1 | 4000
COc1ccc(-c2cnc3cc(OC)c(OC)cc3c2)cc1C | 200
COc1cc2cc(CCC3CCCCC3)cnc2cc1OC | 387
COc1ccc(-c2cnc3cc(OC)c(OC)cc3c2)s1 | 158
COc1cc2cc(C3=CCCC3)cnc2cc1OC | 28.3
